Source: patent publication US10508104B2, “6-hydroxy-5-(phenyl/heteroarylsulfonyl)pyrimidin-4(1H)-one as APJ agonists” (Bristol-Myers Squibb Company, priority 2016, dated 2019)

Biological target: human APJ receptor (Homo sapiens (Human), UniProt P35414)
Assay: Intracellular cAMP accumulation assay (APJ hcAMP, HTRF)
Type: cell-based
Conditions: human APJ, intracellular cAMP accumulation; read-out: Human APJ cAMP EC50 Potency range
How it was run: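 HEK293 cells stably expressing human APJ, 5,000 per well, incubated 30 min at rt with compound, […] and 2 μM forskolin. cAMP measured by HTRF against a cAMP standard curve as inhibition of forskolin-driven production. EC50 from variable-slope sigmoidal fit.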

Sequence of human APJ receptor (P35414 whole entry): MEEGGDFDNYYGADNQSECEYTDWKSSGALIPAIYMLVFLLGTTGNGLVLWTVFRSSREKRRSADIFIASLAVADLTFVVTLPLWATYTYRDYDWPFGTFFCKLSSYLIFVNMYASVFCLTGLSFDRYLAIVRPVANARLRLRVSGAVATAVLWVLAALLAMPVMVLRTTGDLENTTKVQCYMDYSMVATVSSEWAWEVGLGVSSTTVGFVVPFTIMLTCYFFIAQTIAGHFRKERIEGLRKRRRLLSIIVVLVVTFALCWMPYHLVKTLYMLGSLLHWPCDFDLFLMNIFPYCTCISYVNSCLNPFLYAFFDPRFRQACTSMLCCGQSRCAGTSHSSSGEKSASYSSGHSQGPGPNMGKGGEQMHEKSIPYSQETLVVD

Row | SMILES | EC50
1 | CCCCc1nc(=O)c(S(=O)(=O)c2ccc(-c3ccc(F)nc3)cc2)c(O)n1[C@@H](C)c1cccc(C#N)c1 [Example 141, 3-[(1S)-1-{2-butyl-5-[4-(6-fluoropyridin-3-yl)benzenesulfonyl]-6-hydroxy-4-oxo-1,4-dihydropyrimidin-1-yl}ethyl]benzonitrile] | 0.01 to 10 nM
2 | CCCCc1nc(=O)c(S(=O)(=O)c2ccc(-c3ccncc3C)cc2)c(O)n1[C@@H](C)c1cccc(C#N)c1 [Example 142, 3-[(1S)-1-{2-butyl-6-hydroxy-5-[4-(3-methylpyridin-4-yl)benzenesulfonyl]-4-oxo-1,4-dihydropyrimidin-1-yl}ethyl]benzonitrile] | 0.01 to 10 nM
3 | CCCCc1nc(=O)c(S(=O)(=O)c2ccc(-c3ccncc3C)cc2)c(O)n1[C@H](CC)c1ccccc1 [Example 143, 2-butyl-6-hydroxy-5-[4-(3-methylpyridin-4-yl)benzenesulfonyl]-1-[(1R)-1-phenylpropyl]-1,4-dihydropyrimidin-4-one] | 0.01 to 10 nM
4 | CCCCc1nc(=O)c(S(=O)(=O)c2ccc(-c3ccncc3C)cc2)c(O)n1[C@@H](CC)c1cccc(OC)c1 [Example 144, 2-butyl-6-hydroxy-1-[(1S)-1-(3-methoxyphenyl)propyl]-5-[4-(3-methylpyridin-4-yl)benzenesulfonyl]-1,4-dihydropyrimidin-4-one] | 0.01 to 10 nM
5 | CCCCc1nc(=O)c(S(=O)(=O)c2ccc(-c3cncc(F)c3)cc2)c(O)n1[C@@H](CC)c1cccc(OC)c1 [Example 145, 2-butyl-5-[4-(5-fluoropyridin-3-yl)benzenesulfonyl]-6-hydroxy-1-[(1S)-1-(3-methoxyphenyl)propyl]-1,4-dihydropyrimidin-4-one] | 0.01 to 10 nM
6 | CCCCc1nc(=O)c(S(=O)(=O)c2ccc(-c3ccc(F)nc3)cc2)c(O)n1[C@@H](CC)c1cccc(OC)c1 [Example 146, 2-butyl-5-[4-(6-fluoropyridin-3-yl)benzenesulfonyl]-6-hydroxy-1-[(1S)-1-(3-methoxyphenyl)propyl]-1,4-dihydropyrimidin-4-one] | 0.01 to 10 nM
7 | CCCCc1nc(=O)c(S(=O)(=O)c2ccc(-c3ccc(OC)nc3C)cc2)c(O)n1[C@@H](COC)c1ccccc1 [Example 147, 2-butyl-6-hydroxy-1-[(1R)-2-methoxy-1-phenylethyl]-5-[4-(6-methoxy-2-methylpyridin-3-yl)benzenesulfonyl]-1,4-dihydropyrimidin-4-one] | 0.01 to 10 nM
8 | CCCCc1nc(=O)c(S(=O)(=O)c2ccc(-c3ccnc(F)c3C)cc2)c(O)n1[C@@H](COC)c1ccccc1 [Example 148, 2-butyl-5-[4-(2-fluoro-3-methylpyridin-4-yl)benzenesulfonyl]-6-hydroxy-1-[(1R)-2-methoxy-1-phenylethyl]-1,4-dihydropyrimidin-4-one] | 0.01 to 10 nM

Now from value to molecule:

Row | EC50 | SMILES
9 | 0.01 to 10 nM | CCCCc1nc(=O)c(S(=O)(=O)c2ccc(C)cc2)c(O)n1[C@@H](COC)c1ccccc1 [Example 137, 2-butyl-6-hydroxy-1-[(1R)-2-methoxy-1-phenylethyl]-5-(4-methylbenzenesulfonyl)-1,4-dihydropyrimidin-4-one]
10 | 0.01 to 10 nM | CCCCc1nc(=O)c(S(=O)(=O)c2ccc(-c3ccncc3C)cc2)c(O)n1[C@@H](C)c1ccccc1 [Example 138, 2-butyl-6-hydroxy-5-[4-(3-methylpyridin-4-yl)benzenesulfonyl]-1-[(1S)-1-phenylethyl]-1,4-dihydropyrimidin-4-one]
11 | 0.01 to 10 nM | CCCCc1nc(=O)c(S(=O)(=O)c2ccc(-c3ccncc3C)cc2)c(O)n1[C@H](C)c1ccccc1 [Example 139, 2-butyl-6-hydroxy-5-[4-(3-methylpyridin-4-yl)benzenesulfonyl]-1-[(1R)-1-phenylethyl]-1,4-dihydropyrimidin-4-one]
12 | 0.01 to 10 nM | CCCCc1nc(=O)c(S(=O)(=O)c2ccc(-c3cncc(F)c3)cc2)c(O)n1[C@@H](C)c1cccc(C#N)c1 [Example 140, 3-[(1S)-1-{2-butyl-5-[4-(5-fluoropyridin-3-yl)benzenesulfonyl]-6-hydroxy-4-oxo-1,4-dihydropyrimidin-1-yl}ethyl]benzonitrile]
